Laboratory results as given in EP0799218B1, “DIARYL-2-(5H)-FURANONES AS COX-2 INHIBITORS” (Merck Frosst Canada & Co., priority 1994, dated 1996).

Legend:
Cox-2 = target: T1, Cox-2 (Homo sapiens, UniProt P35354); assay: Human whole blood assay, Cox-2 (LPS-induced PGE2 production); assay type: cell-based; conditions: LPS 100 µg/ml, 24 hours at 37 °C, PGE2 by radioimmunoassay, read-out: HWB Cox-2 IC50
T1 construct: endogenous in cells; host or cells: fresh heparinized human whole blood from volunteers, stimulated with LPS
T1 sequence (P35354 18-604 limits assumed): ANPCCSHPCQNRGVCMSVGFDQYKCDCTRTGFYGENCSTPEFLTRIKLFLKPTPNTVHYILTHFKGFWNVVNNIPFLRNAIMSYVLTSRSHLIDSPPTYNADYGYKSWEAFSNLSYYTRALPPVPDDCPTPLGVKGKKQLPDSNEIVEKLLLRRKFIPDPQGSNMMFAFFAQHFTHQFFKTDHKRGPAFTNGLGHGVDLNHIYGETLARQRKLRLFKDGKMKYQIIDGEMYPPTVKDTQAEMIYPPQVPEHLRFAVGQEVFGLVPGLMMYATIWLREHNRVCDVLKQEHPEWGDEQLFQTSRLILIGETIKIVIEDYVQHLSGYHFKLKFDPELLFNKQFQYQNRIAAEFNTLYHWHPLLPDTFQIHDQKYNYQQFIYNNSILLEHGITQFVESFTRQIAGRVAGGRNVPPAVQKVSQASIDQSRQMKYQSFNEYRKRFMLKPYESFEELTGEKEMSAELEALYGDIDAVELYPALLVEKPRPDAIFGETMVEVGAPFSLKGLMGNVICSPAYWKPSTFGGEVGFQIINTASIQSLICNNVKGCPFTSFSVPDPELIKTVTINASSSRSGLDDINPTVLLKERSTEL
Description: (§1) Human whole blood provides a protein and cell-rich milieu appropriate for the study of biochemical efficacy of anti-inflammatory compounds such as selective Cox-2 inhibitors. […] This is consistent with the observation that Cox-2 inhibitors have no effect on PGE2 production in normal blood. These inhibitors are active only after incubation of human whole blood with LPS (lipopolysaccharide), which induces Cox-2. This assay can be used to evaluate the inhibitory effect of selective Cox-2 inhibitors on PGE2 production: As well, platelets in whole blood contain a large amount of the Cox-1 enzyme. Immediately following blood clotting, platelets are activated through a thrombin-mediated mechanism. This reaction results in the production of thromboxane B2 (TxB2) via activation of Cox-1. Thus, the effect of test compounds on TxB2 levels levels following blood clotting can be examined and used as an index for Cox-1 activity. Therefore, the degree of selectivity by the test compound can be determined by measuring the levels of PGE2 after LPS induction (Cox-2) and TxB2 following blood clotting (Cox-1) in the same assay.
Fresh blood was collected in heparinized tubes by venipuncture from both male and female volunteers. The subjects had no apparent inflammatory conditions and had not taken any NSAIDs for at least 7 days prior to blood collection. Plasma was immediately obtained from a 2mL blood aliquot to use as blank (basal levels of PGE2). The remaining blood was incubated with LPS (100 µg/ml final concentration, Sigma Chem, #L-2630 from E. coli; diluted in 0.1% BSA-Phosphate buffered saline) for 5 minutes at room temperature. Five hundred µL aliquots of blood were incubated with either 2 µL vehicle (DMSO) or 2 µL of a test compound at final concentrations varying from 10nM to 30µM for 24 hours at 37 °C. At the end of the incubation, the blood was centrifuged at 12,000 x g for 5 minutes to obtain plasma. A 100 µL aliquot of plasma was mixed with 400 µL of methanol for protein precipitation. The supernatant was obtained and was assayed for PGE2 using a radioimmunoassay kit (Amersham, RPA#530) after conversion of PGE2 to its methyl oximate derivative according to the manufacturer's procedure.
(§2) Compounds of the present invention are inhibitors of cyclooxygenase-2 and are thereby useful in the treatment of cyclooxygenase-2 mediated diseases as enumerated above. The activities of the compounds against cyclooxygenase may be seen in the representative results shown below. In the assay, inhibition is determined by measuring the amount of prostaglandin E2 (PGE2) synthesized in the presence of arachidonic acid, cyclooxygenase-1 or cyclooxygenase-2 and a putative inhibitor. The IC50 values represent the concentration of putative inhibitor required to return PGE2 synthesis to 50% of that obtained as compared to the uninhibited control.

Cox-1 = target: T2, Cox-1 (Homo sapiens, UniProt P23219); assay: Human whole blood assay, Cox-1 (clotting-induced TxB2 production); assay type: cell-based; conditions: clotting 1 hour at 37 °C, TxB2 by enzyme immunoassay, read-out: HWB Cox-1 IC50
T2 construct: platelets in whole blood contain a large amount of the Cox-1 enzyme; endogenous in cells; host or cells: platelets in fresh human whole blood, no anticoagulant, clotting for 1 hour at 37 °C
T2 sequence (P23219 24-599): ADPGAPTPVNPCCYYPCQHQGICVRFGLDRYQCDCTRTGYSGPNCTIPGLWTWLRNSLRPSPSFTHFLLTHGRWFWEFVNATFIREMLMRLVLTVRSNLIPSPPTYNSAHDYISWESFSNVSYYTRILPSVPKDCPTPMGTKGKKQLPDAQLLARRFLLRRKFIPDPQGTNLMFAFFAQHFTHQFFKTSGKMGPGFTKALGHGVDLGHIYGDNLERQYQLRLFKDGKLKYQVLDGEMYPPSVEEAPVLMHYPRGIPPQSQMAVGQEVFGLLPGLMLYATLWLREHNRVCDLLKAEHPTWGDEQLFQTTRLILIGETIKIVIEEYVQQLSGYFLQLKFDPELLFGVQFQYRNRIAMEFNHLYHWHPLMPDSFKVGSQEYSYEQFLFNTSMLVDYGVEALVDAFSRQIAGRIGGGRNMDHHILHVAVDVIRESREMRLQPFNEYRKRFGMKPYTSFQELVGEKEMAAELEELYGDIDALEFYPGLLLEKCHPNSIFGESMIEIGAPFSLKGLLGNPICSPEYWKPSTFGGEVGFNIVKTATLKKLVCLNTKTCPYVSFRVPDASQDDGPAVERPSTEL
Description: as §1
Fresh blood was collected into vacutainers containing no anticoagulants. Aliquots of 500 µL were immediately transferred to siliconized microcentrifuge tubes preloaded with 2 µL of either DMSO or a test compound at final concentrations varying from 10nM to 30 µM. The tubes were vortexed and incubated at 37 °C for 1 hour to allow blood to clot. At the end of incubation, serum was obtained by centrifugation (12,000 x g for 5 min.). A 100 µL aliquot of serum was mixed with 400 µL of methanol for protein precipitation. The supernatant was obtained and was assayed for TxB2 using a enzyme immunoassay kit (Cayman, #519031) according to the manufacturer's instruction.
as §2

Rat Paw Edema = assay: Rat paw edema assay (carrageenan-induced); assay type: in vivo, Male Sprague-Dawley rats; conditions: po, 1 hr before subplantar carrageenan, paw volume 3 hr later
Description: Male Sprague-Dawley rats (150 - 200 g) were fasted overnight and were given po either vehicle (1% methocel or 5% Tween 80) or a test compound. One hr later, a line was drawn using a permanent marker at the level above the ankle in one hind paw to define the area of the paw to be monitored. The paw volume (V0) was measured using a plethysmometer (Ugo-Basile, Italy) based on the principle of water displacement The animals were then injected subplantarly with 50 µl of 1% carrageenan solution in saline (FMC Corp, Maine) into the paw using an insulin syringe with a 25-gauge needle (i.e. 500 µg carrageenan per paw). Three hr later, the paw volume (V3) was measured and the increases in paw volume (V3 - V0) were calculated. The animals were sacrificed by CO2 aphyxiation and the absence or presence of stomach lesions scored. Data were compared with the vehicle-control values and percent inhibition calculated. Since a maximum of 60-70% inhibition (paw edema) was obtained with standard NSAIDs, ED30 values were used for comparison. All treatment groups were coded to eliminate observer bias.

Row | IC50 (Cox-2) | IC50 (Cox-1) | SMILES | ED30 (Rat Paw Edema)
1 | 0.81 µM | > 30 µM | COc1cccc(C2=C(c3ccc(S(C)(=O)=O)cc3)C(C)(C)OC2=O)c1 [Example 2, 5,5-Dimethyl-3-(3-methoxyphenyl)-4-(4-(methylsulfonyl)phenyl)-2-(5H)-furanone] | 0.3 mg/kg
2 | 0.17 µM | > 30 µM | CC1(C)OC(=O)C(c2ccccc2)=C1c1ccc(S(C)(=O)=O)cc1 [Example 4, 5,5-Dimethyl-4-(4-(methylsulfonyl)phenyl)-3-phenyl-2-(5H)-furanone] | 0.26 mg/kg
3 | 0.37 µM | 30 µM | CS(=O)(=O)c1ccc(C2=C(c3ccccc3)C(=O)OC23CCCC3)cc1 [Example 10, 4-(4-(Methylsulfonyl)phenyl)-3-phenyl-1-oxa-spiro[4,4]non-3-en-2-one] | 0.41 mg/kg
4 | 0.06 µM | 2.2 µM | CC1(C)CC(c2ccc(S(C)(=O)=O)cc2)=C(c2ccccc2)C1=O [Example 11, 5,5-Dimethyl-3-(4-(methylsulfonyl)phenyl)-2-phenylcyclopent-2-enone] | 1.17 mg/kg
5 | 0.6 µM | > 30 µM | CS(=O)(=O)c1ccc(C2=C(c3ccccc3)C(=O)OC23CC3)cc1 [Example 13, 7-(4-(Methylsulfonyl)phenyl)-6-phenyl-4-oxa-spiro[2,4]-hept-6-en-5-one] | 0.3 mg/kg
6 | 1.1 µM | > 30 µM | CS(=O)(=O)c1ccc(C2=C(c3ccccc3)C(=O)OC2(CF)CF)cc1 [Example 14, 5,5-Bisfluoromethyl-3-phenyl-4-(4-(methylsulfonyl)phenyl)-2-(5H)-furanone] | 0.62 mg/kg
